Some test systems named below: EKVX; HCC 2998; HCT-116; HCT-15; IGROV-1; K562; MDA-N; NCI-H23; NCI-H460; NCI-H522; NCI/ADR-RES; SK-OV-3; SNB-75; SR; TK-10; U-251; UACC-257; UO-31; PC-3; MDA-MB-435.
Common to all, as to assay: DTP human tumour cell line panel, 48 h

Experimental findings from ChEMBL document CHEMBL1201862, “PubChem BioAssay data set” (2004) are described below.

In general, GI50 refers to the concentration that inhibits growth by half.

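48-hour exposure; five concentrations; linearly interpolated endpoints. GI50 marks 50% less growth.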 Active and inactive are the calls of the source. Cut-off read from the data, not from the text of the source: active = GI50 up to about 1.1 µM and inactive = higher.

With `O=C(O)CCCc1nc2c(n1-c1ccccc1)C(=O)c1ccccc1C2=O`, the GI50 in the experiment on EKVX was 62.8 µM (inactive); in the experiment with HCC 2998, 91.8 µM (inactive); in the experiment with HCT-116, 49.1 µM (inactive); with HCT-15, 74.5 µM; with IGROV-1 it was > 100 µM (inactive); in the experiment on K562 it was 69.8 µM (inactive). Further, the GI50 in the experiment on MDA-N was 43.5 µM (inactive); in the experiment with NCI-H23 it was 65.8 µM (inactive); in the experiment with NCI-H460, > 100 µM (inactive); in the experiment on NCI-H522, 14.2 µM (inactive); in the experiment on NCI/ADR-RES, > 100 µM (inactive); with SK-OV-3, > 100 µM (inactive). The GI50 in the experiment with SNB-75 is 43.5 µM (inactive); with SR it was 77.8 µM (inactive); in the experiment on TK-10, > 100 µM (inactive); with U-251 it was > 100 µM (inactive); in the experiment on UACC-257, 33.2 µM (inactive); in the experiment on UO-31, > 100 µM (inactive).
For the compound `COC(=O)/C=C(\C)CC/C=C(\C)CCC1OC1(C)C` (stereo not drawn), the GI50 is 13 µM (inactive) with EKVX; 9.66 µM (inactive) in the experiment on HCC 2998; 12.5 µM (inactive) in the experiment on HCT-116; 11.8 µM in the experiment with HCT-15; 12.2 µM (inactive) in the experiment with IGROV-1; 3.11 µM (inactive) in the experiment on K562. The GI50 in the experiment on MDA-N was 11.7 µM (inactive); in the experiment with NCI-H23, 13.2 µM (inactive); in the experiment on NCI-H460 it was 13.2 µM (inactive); in the experiment on NCI/ADR-RES, 13.9 µM (inactive); in the experiment with PC-3 it was 8.36 µM (inactive); in the experiment with SK-OV-3, 23.7 µM (inactive). The GI50 was 17.4 µM (inactive) in the experiment on SNB-75; 8.79 µM (inactive) in the experiment on SR; 12.4 µM (inactive) with TK-10; 11.8 µM (inactive) in the experiment on U-251; 12.5 µM (inactive) in the experiment on UACC-257; 10.7 µM (inactive) with UO-31.
With `CCOC(=O)N/N=C(/N)c1cccc(Br)c1`, the GI50 with EKVX was 83 µM (inactive); in the experiment on HCC 2998 it was > 100 µM (inactive); in the experiment on HCT-116, > 100 µM (inactive); in the experiment on HCT-15 it was more than 100 µM; with IGROV-1, > 100 µM (inactive); in the experiment on K562, > 100 µM (inactive). Moreover, the GI50 in the experiment on MDA-N, in the experiment with NCI-H23, in the experiment on NCI-H460, in the experiment on NCI-H522, in the experiment with NCI/ADR-RES and with PC-3 was > 100 µM (inactive) each time. Also, the GI50 was > 100 µM (inactive) in the experiment on SK-OV-3; > 100 µM (inactive) in the experiment with SNB-75; > 100 µM (inactive) in the experiment on SR; > 100 µM (inactive) in the experiment with TK-10; > 100 µM (inactive) with UACC-257; 56.1 µM (inactive) in the experiment with UO-31.
On to `COC1C(OC(=O)/C=C/C=C/C=C/C=C\C(=O)O)CCC2(CO2)C1C1(C)OC1CC=C(C)C` (stereo not drawn), for which the GI50 with EKVX was > 100 µM (inactive); in the experiment on HCC 2998 it was > 100 µM (inactive); with HCT-116, > 100 µM (inactive); in the experiment on HCT-15 it was more than 100 µM; in the experiment with IGROV-1, > 100 µM (inactive); in the experiment with K562, > 56.5 µM (inactive). Besides, the GI50 in the experiment on MDA-MB-435, in the experiment on NCI-H23, in the experiment with NCI-H460, in the experiment with NCI-H522, in the experiment on NCI/ADR-RES and in the experiment with PC-3 was > 100 µM (inactive) in each case. Moreover, the GI50 with SK-OV-3 was > 89.7 µM (inactive); in the experiment with SNB-75 it was > 100 µM (inactive); with SR, > 100 µM (inactive); in the experiment with TK-10, > 100 µM (inactive); in the experiment on U-251, > 100 µM (inactive); in the experiment with UACC-257, > 100 µM (inactive). For the same compound, the GI50 in the experiment with UO-31 was > 100 µM (inactive).
